The values below come from patent US20260183286A1, “Compositions and Methods for an Oral Supplement to Oral Minoxidil for the Treatment of Alopecia” (FOLLEA INTERNATIONAL, priority 2023, published 2026).

In this assay the test system is SLC22A9. As to the kind of experiment: Placebo controlled study of ammonium chloride oral supplement: SLC22A9 expression from hair follicles. Type of assay: in vivo. The settings on record: 268 mg ammonium chloride oral supplement daily for 5 days; measured at baseline and day 5; 10 subjects active vs 10 placebo; p=0.01. As to the method:
A placebo controlled study was conducted with a 268 mg ammonium chloride oral supplement to ascertain increase in SLC22A9 up-regulation. Ten subjects were administered the placebo and 10 subjects were administered ammonium chloride daily for 5 days. The SLC22A9 expression from hair follicles was measured at baseline and day 5. SLC22A9 increased 3 folds and was statistically significant p=0.01 increased in the active vs placebo group.

Regarding `Cl.N` [ammonium chloride], the “SLC22A9 expression from hair follicles, increase” value amounted to 3 folds.
